Assay results reported in patent US8017727B2, “Conjugates of membrane translocating agents and pharmaceutically active agents” (Merrion Research III Limited, priority 1999, dated 2011).
Values after ≈ are worked out from the molar mass of the structure shown. Where two headings read alike, the source gives them in different places. Non-standard residues stand in square brackets, D forms with d. Residues, ends and D or L forms follow the SMILES beside them.

Legend:
[1] = 3H tissue distribution of kappa peptide conjugates, conscious rat model; assay type: in vivo, Wistar rats; conditions: ID, 100 μCi, potency corrected
Protocol: The tissue was weighed and a representative sample, (ca 0.1 g), was removed to a scintillation vial. The tissue was solubilzed with 1 ml of BTS-450 (an organic tissue solubliser). Ten ml of scintillation fluid was added and the radioactivity was measured. The radioactivity was expressed as dpm/initial weight of tissue.

Caco-2 cell monolayers = experiment: Permeability of tritiated kappa peptide conjugates through differentiated Caco-2 cell monolayers; assay type: in vitro ADME, human; conditions: n=5
Protocol: Highest transport values were obtained in the first 30 min followed by a 2-4 fold decrease at 60 min. The significance of these findings is unclear. The data may be indicative of dual binding/uptake events occurring through i) a kappa receptor specific mechanism and ii) direct membrane interaction through lipid interaction of the membrane permeable peptide.

[2] = Systemic 3H bioavailability of kappa peptide conjugates, conscious rat model (plasma); assay type: in vivo, Wistar rats; conditions: intraduodenal (ID), 100 μCi; for bioavailability: rat, plasma, potency corrected, read-out: Absolute 3H bioavailability
Protocol: The possible enhancing effects of ELAN094 and ELAN207 MTLPs (SEQ ID NOs 2 and 60) on intestinal absorption of the kappa peptide were examined in a conscious rat model.
The study was non-randomised, parallel group design. Wistar rats within the 250-350 g weight range were used. All animals were fasted for a period of 16 h prior to study initiation. Water was available at all times.
Intravenous injection of 10 μCi of ^3H-kappa peptide-Kaffiralin-1 (plain kappa peptide) (tail vein injection).
Intraduodenal instillation of 100 μCi of ^3H-kappa peptide-Elan094 (Analysed). The Elan094 ligand contains a membrane translocating sequence.
Intraduodenal instillation of 100 μCi of ^3H-kappa peptide-Elan207 (Analysed). The Elan207 ligand contains a membrane translocating sequence.
Intraduodenal instillation of 100 μCi of ^3H-kappa peptide-Kaffiralin-1.
The plasma (100-250 μl) was made up to 1 ml with BTS-450 (an organic tissue solubiliser) and incubated for 1 hour. Ten ml of Scintillation fluid was added and the radioactivity was measured.
The study was a non-randomised, parallel group biostudy designed to evaluate the systemic bioavailability of tritium labelled kappa peptide conjugates after intra-duodenal instillation in the conscious rat model. Each rat only received one treatment and the plasma samples were analysed for tritium content. The calculation of AUClast, Amax, tmax, Volume of Distribution (V d) and Clearance was based on base line corrected data. The absolute bioavailability was calculated using potency corrected data.

Caco-2 monolayers [3] = experiment: Transport of reporter molecule 3H-fMLP across Caco-2 monolayers; assay type: cell-based, human; conditions: for % inhibition 3H-fMLP transport: flux measured over 2 h
Protocol: The effect of the MTLPs ZElan094, ZElan178 and ZElan187 (SEQ ID NOS: 2, 7 and 16) and of the targeting peptide ZElan022 (U.S. patent application Ser. Nos. 09/079,819, 09/079,723 AND 09/079,678, AND PCT A[…]/US98/10088, PUBLISHED AS WO 98/51325) on the transport of the dipeptide ^14C-gly-sar and of the reporter molecule ^3H-fMLP across Caco-2 monolayers was determined. The Caco-2 monolayers were grown on Transwell-Snapwells. Cell viability was determined by measuring TEER of the Caco-2 monolayers during each experiment. No significant drop in TEER was measured. Cell permeability was determined by measuring mannitol flux across the Caco-2 monolayers during each experiment. No increase in mannitol flux was measured in the presence of the MTLP ZElan094.
The flux of the dipeptide ^14C-gly-sar and of the reporter molecule ^3H-fMLP across the Caco-2 monolayers in the absence and in the presence of the MTLPs ZElan094, ZElan178 and ZElan187 (SEQ ID NOS: 2, 7 and 16) and of the targeting peptide ZElan022 (U.S. patent application Ser. Nos. 09/079,819, 09/079,723 AND 09/079,678), AND PCT A[…]/US98/10088, PUBLISHED AS WO 98/51325 was measured over 2 h, and reduction in the permeability coefficient was determined in the presence of cold substrates.
Caco-2 monolayers were grown and tested for viability as in Example 11. Transport of ^3H-fMLP across Caco-2 monolyers was measured in the presence from 0 to 200 μg/ml of the MTLP ZElan094.

Caco-2 monolayers [4] = experiment: Transport of dipeptide 14C-gly-sar across Caco-2 monolayers; assay type: cell-based, human; design: key to % inhibition 14C-gly-sar transport: NS: no significant difference between experimental (+MTLP) and control cells (−MTLP) in the transport of radiolabeled drug; conditions: flux measured over 2 h
Protocol: The effect of the MTLPs ZElan094, ZElan178 and ZElan187 (SEQ ID NOS: 2, 7 and 16) and of the targeting peptide ZElan022 (U.S. patent application Ser. Nos. 09/079,819, 09/079,723 AND 09/079,678, AND PCT APPLICATION PCT/US98/10088, PUBLISHED AS WO 98/51325) on the transport of the dipeptide ^14C-gly-sar and of the reporter molecule ^3H-fMLP across Caco-2 monolayers was determined. The Caco-2 monolayers were grown on Transwell-Snapwells. Cell viability was determined by measuring TEER of the Caco-2 monolayers during each experiment. No significant drop in TEER was measured. Cell permeability was determined by measuring mannitol flux across the Caco-2 monolayers during each experiment. No increase in mannitol flux was measured in the presence of the MTLP ZElan094.
The flux of the dipeptide ^14C-gly-sar and of the reporter molecule ^3H-fMLP across the Caco-2 monolayers in the absence and in the presence of the MTLPs ZElan094, ZElan178 and ZElan187 (SEQ ID NOS: 2, 7 and 16) and of the targeting peptide ZElan022 (U.S. patent application Ser. Nos. 09/079,819, 09/079,723 AND 09/079,678), AND PCT APPLICATION PCT/US98/10088, PUBLISHED AS WO 98/51325 was measured over 2 h, and reduction in the permeability coefficient was determined in the presence of cold substrates.

[5] = Solubility of ZElan094 (physical characteristics); assay type: physicochemical; conditions: water
Caco-2 cells = experiment: Delivery of DNA from MTLP coated liposomes into Caco-2 cells (β-galactosidase expression); assay type: cell-based, human; conditions: versus lipofectamine+DNA and lipofectamine+DNA+protamine control liposomes
Protocol: DNA delivery into Caco-2 cells from liposomes and from MTLP coated liposomes was calculated as β-galactosidase expression per mg of total protein in the cell supernatant. β-galactosidase expression was determined using the Boehringer Mannheim chemiluminescence kit. Protein was determined using the Pierce Micro bichinconate (BCA) protein assay.
Caco-2 cells were plated at 1×10^5 cells/well in 1 ml of culture media and incubated at 37° C. in 5% CO2 overnight. The cells were washed twice in 0.5 ml of optiMEM. ZElan094, 204N or 204 (SEQ ID NOS: 2, 23, 24) (Solution 4, Example 9) were each added to triplicate wells (250 μl/well) of the washed cells and incubated for 4 h at 37° C. After 4 h, 250 μl of optiMEM containing 2× fetal calf serum was added and the cells were incubated for an additional 20 h at 37° C. At 24 h post-transfection, the cells were lysed with Boehringer Mannheim Lysis Buffer. The lysate was centrifuged for 2 min at 14,000 rpm in an Eppendorf Centrifiguge and the supernatant was collected.

## CC[C@@H](C)[C@@H](NC(=O)[C@@H](Cc1ccccc1)NC(=O)[C@@H](Cc1ccccc1)NC(=O)[C@@H](CCCCN)NC(=O)[C@H]1CCCN1C(=O)[C@@H](C)NC(=O)[C@@H](C)NC(=O)[C@@H](CC(C)C)NC(=O)[C@@H](CC(C)C)NC(=O)[C@H](NC(=O)[C@H]1CCCN1C(=O)[C@@H](CC(C)C)NC(=O)[C@@H](CC(C)C)NC(=O)[C@H](NC(=O)[C@@H](C)NC(=O)[C@@H](C)NC(=O)[C@@H](C)NC(=O)[C@@H](CCCCN)NC(=O)[C@H](N)CCCCN)C(C)C)C(C)C)C(=O)N[C@H](CCCNC(=N)N)C(N)=O [3H-Kappa peptide-Elan 207] (H-[dK][dK][dA][dA][dA][dV][dL][dL][dP][dV][dL][dL][dA][dA][dP][dK][dF][dF][dI][dR]-NH2; N-terminus and C-terminus assumed)
[1]
  Catheter, % of administered dose: 0.14 ± 0.09%
  GI Tissue, % of administered dose: 4.08 ± 2.47%
  GI Washing, % of administered dose: 9.60 ± 16.65%
  GI contents, % of administered dose: 26.34 ± 17.00%
  Liver, % of administered dose: 0.47 ± 0.20%
  Total GI (% recovery from GI tissue, GI contents & GI wash): 40.03 ± 23.23%
[1]; t=6 h
  Kidney, % of administered dose: 0.17 ± 0.07%
  Plasma, % of administered dose: 0.10 ± 0.01%
  Total Recovery, % of administered dose: 40.91 ± 23.32%
[1]; t=6 h, listed as 3H-Kappa peptide Elan207
  Plasma, % of administered dose: 0.10±0.01%
Caco-2 cell monolayers
  permeability compared to the kappa peptide control: No significant increase
[2]; (Repeat) group
  3H AUClast: 249021.32±37503.78 dpm/ml·h
  3H Amax (maximum radioactivity): 201464.40±44854.19 dpm/ml
  fold increase in absolute 3H bioavailability versus kappa peptide without ligand: approx. 2 fold
  bioavailability: 16.6 ± 2.5%
[2]; Elan207 = original group
  3H AUClast: 162743.70±13549.10 dpm/ml·h
  3H Amax (maximum radioactivity): 100041.17±6274.57 dpm/ml
  bioavailability: 11.5 ± 0.96%
[2]; listed as Elan207 MTLP
  fold increase in absolute 3H bioavailability versus kappa peptide without ligand: > 1.5 fold

## CC(C)C[C@H](NC(=O)[C@H](CC(C)C)NC(=O)[C@@H](NC(=O)[C@@H]1CCCN1C(=O)[C@H](CC(C)C)NC(=O)[C@H](CC(C)C)NC(=O)[C@@H](NC(=O)[C@H](C)NC(=O)[C@H](C)NC(=O)[C@H](C)NC(=O)[C@H](CCCCN)NC(=O)[C@H](CCCCN)NC(=O)[C@@H](N)CCCCNS(=O)(=O)c1cccc2c(N(C)C)cccc12)C(C)C)C(C)C)C(=O)N[C@@H](C)C(=O)N[C@@H](C)C(=O)N1CCC[C@H]1C(N)=O [ZElan094]
Caco-2 monolayers [3]; listed as 094
  % inhibition 3H-fMLP transport: 77.2%
Caco-2 monolayers [3]; listed as ZElan 094
  % inhibition 3H-fMLP transport: inhibited transport
Caco-2 monolayers [3]; range 0 to 200 μg/ml
  inhibition of 3H-fMLP transport: inhibited
Caco-2 monolayers [4]
  % inhibition 14C-gly-sar transport: NS
  inhibition of 14C-gly-sar transport: did not inhibit transport
[5]
  solubility: 1000 µg/mL (≈ 545 µM)

## H-K(ε-dansyl)AAVLLPVLLAAKKKRKA-NH2 ({K(dansyl)}-AAVLLPVLLAAKKKRKA-NH2) [ZElan204N]
Caco-2 cells
  DNA delivery into and expression within Caco-2 cells: most effective
